Tests used:
[1] = system: Lung carcinoma HBT182; experiment: growth inhibition of tumour cell lines; conditions: read-out: half maximum growth inhibitory concentration (IC50), Δ,Δ-enantiomers of (I)-(IV), Δ-enantiomer of (V)
[2] = system: SUDHL 1; experiment: growth inhibition of tumour cell lines; conditions: read-out: half maximum growth inhibitory concentration (IC50), Δ,Δ-enantiomers of (I)-(IV), Δ-enantiomer of (V)
[3] = system: LAMA; experiment: growth inhibition of tumour cell lines; conditions: read-out: half maximum growth inhibitory concentration (IC50), Δ,Δ-enantiomers of (I)-(IV), Δ-enantiomer of (V)
[4] = system: calf thymus DNA; experiment: sodium dodecylsulphate-driven dissociation of the DNA complex; assay type: binding; conditions: [NaCl]=159 mM
Protocol: While the association reaction is relatively insensitive to the ionic strength of the solution, the dissociation is much faster at physiological salt concentrations, however, the rate constant is still only 0.008 S^−1 at [NaCl]=159 mM.

[5] = system: DNA; experiment: linear dichroism of complex bound to DNA; assay type: binding; conditions: 10 mM and 200 mM aqueous NaCl, [Ru]=5 μM, P/Ru=30; negative signals at 380 and 470 nm
Text: The properties of the Δ,Δ enantiomer of (I) regarding DNA binding was then studied.
The amplitude of the negative signals 380 and 470 nm indicate bis-intercalation of the complex (Lincoln, P. et al. JACS 118 (1996) 2644).

IC50 [1] | IC50 [2] | IC50 [3] | DNA binding mode [5] | Compound | dissociation rate constant [4]
19 µM | 14 µM | 12 µM | – | μ-[N,N′-bis(12-cyano-12,3-dihydro-11H-cyclopentadipyrido[b:3,2-h:2′,3′-j]phenazine-12-carbonyl)-1,2-diaminoethane N^4,N^5,N^4′,N^5′]-tetra(1,10-phenanthroline N^1,N^10)-diruthenium(4+)-tetrachloride [(III)] | –
9 µM | 14 µM | 8 µM | bis-intercalation | μ-[N,N′-bis(12-cyano-12,13-dihydro-11H-cyclopentadipyrido[b:3,2-h:2′,3′-j]phenazine-12-carbonyl)-1,4-diaminobutane-N^4,N^5,N′^4,N′^5]-tetra (1,10-phenanthroline N^1,N^10) diruthenium(4+) -tetra-chloride [(I)] | 0.008 S^−1

Further lines, the compound ahead of its results:

Compound | IC50 [1] | IC50 [2] | IC50 [3] | DNA binding mode [5] | dissociation rate constant [4]
[Cl-].[Cl-].[Ru+2].c1ccc2nc3c4cccnc4c4ncccc4c3nc2c1.c1cnc2c(c1)ccc1cccnc12.c1cnc2c(c1)ccc1cccnc12 [(V), reference compound] | 38 µM | 39 µM | 43 µM | – | –
Δ,Δμ-[N,N′-bis(12-cyano-12,13-dihydro-11H-cyclopentadipyrido[b:3,2-h:2′,3′-j]phenazine-12-carbonyl)-1,4-diaminobutane N^4N^5,N^4,N^5′]-tetra(2,2′-bipyridine N^1,N^1′)diruthenium(4+)-tetrachloride [(II)] | 8 µM | 12 µM | 9 µM | – | –
μ-[N,N′-bi (12-cyano-12,13-dihydro-11H-cyclopentadipyrido[b:3,2-h:7′,3′-j]phenazine-12-carbonyl)-1,2-diaminoethane N^4,N^5,N^4′,N^5′]-tetra(2,2′-bipyridine N^1,N^1′)-diruthenium(4+)-tetrachloride [(IV)] | 10 µM | 22 µM | 16 µM | – | –

— patent US6440971B1, “Binuclear complex” (A+ Science Invest AB, priority 1997, dated 2002)
